Series [1] is described as follows: in vitro. Conditions: human, Caco-2.
Series [2] can be described thus: in vitro. Conditions: human, Caco-2. The source holds these as a separate data set.

A word on the Papp: it is a coefficient for how fast a substance crosses the barrier. The low end stands for poor permeation, the high end for ready permeation. By Papp A→B is commonly meant the apparent permeability from the apical to the basolateral side of a cell layer. Read a low Papp A→B as poor permeation. In the series “in vitro [1]”, `CNC(=O)[C@H](Cc1ccc2ccccc2c1)N1CCN(C(=O)[C@H](N)Cc2ccc(F)cc2)[C@@H](CCNC(=N)N)C1=O` showed a Papp of 0.333 ×10⁻⁶ cm/s. In “in vitro [2]”, the Papp A→B was 0.333 ×10⁻⁶ cm/s.
In the series “in vitro [1]”, `C=CC[C@H]1C(=O)N([C@@H](Cc2ccc3ccccc3c2)C(=O)NC)CCN1C(=O)[C@H](N)Cc1ccc(F)cc1` had a Papp of 15.2 ×10⁻⁶ cm/s. The Papp A→B in “in vitro [2]” was 6.5 ×10⁻⁶ cm/s.

The values are drawn from ChEMBL document CHEMBL1140090, “Discovery of orally bioavailable 1,3,4-trisubstituted 2-oxopiperazine-based melanocortin-4 receptor agonists as potential antiobesity agents” (J Med Chem, 2008).
